Values after ≈ are worked out from the molar mass of the structure shown.
How the values were obtained:
Experiment in all cases: in vitro antibacterial evaluation, MIC by broth dilution
Format in all cases: cell-based
[1] = tested on: Enterococcus sp.; conditions: broth dilution, 18 hours at 35° C.; for MIC Enterococcus faecalis (ATCC 29212): strain ATCC 29212; for MIC Enterococcus faecalis (GC 2242): strain GC 2242; for MIC Enterococcus faecium (GC 2243): strain GC 2243; for MIC Enterococcus faecalis (GC 2691): strain GC 2691; for MIC Enterococcus faecalis (GC 3059): strain GC 3059; for MIC Enterococcus faecalis (GC 4552): strain GC 4552; for MIC Enterococcus faecalis (GC 4553): strain GC 4553; for MIC Enterococcus faecalis (GC 4554): strain GC 4554; for MIC Enterococcus faecium (GC 4556): strain GC 4556; for MIC Enterococcus faecium (GC 4557): strain GC 4557; for MIC Enterococcus avium (GC 4558): strain GC 4558; for MIC Enterococcus faecalis (GC 6189): strain GC 6189
Outline: (§1)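 Test organisms, which included recent clinical isolates resistant to methicillin, penicillin and/or vancomycin, were inoculated at 5×10^5 CFU/mL into Muller-Hinton II […] containing antibiotic at 64-0.06 μg/mL. Minimum inhibitory concentrations were then read as the lowest level inhibiting growth.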

[2] = tested on: Escherichia coli
Outline: as §1

[3] = tested on: Staphylococcus sp.; conditions: broth dilution, 18 hours at 35° C.; for MIC Staphylococcus aureus (GC 1131): strain GC 1131
Outline: as §1

[4] = tested on: Streptococcus sp.; conditions: broth dilution, 18 hours at 35° C.; for MIC Streptococcus pneumoniae (ATCC 6301): strain ATCC 6301; for MIC Streptococcus pneumoniae (GC 1894): strain GC 1894; for MIC Streptococcus pyogenes (GC 4563): strain GC 4563; for MIC Streptococcus agalactiae (GC 4564): strain GC 4564; for MIC Streptococcus pneumoniae (GC 4565): strain GC 4565
Outline: as §1

CC(c1ccccc1)C1NC(=O)CNC(=O)C(CO)NC(=O)C(C(O)C2CNC(=N)N2C2OC(CO)C(O)C(O)C2O)NC(=O)C(C(O)C2CNC(=N)N2)NC(=O)C(Cc2ccc(OC3OC(CO)C(OC4OC5COC(c6ccc(-c7ccsc7)cc6)OC5C(O)C4O)C(O)C3O)cc2)NC1=O (stereo not drawn) [Example 164]
MIC Enterococcus faecalis (ATCC 29212) ([1]; inoculum 5×10^5 CFU/mL): 8 µg/mL (≈ 5.46 µM) | MIC Enterococcus faecalis (GC 2242) ([1]; inoculum 5×10^5 CFU/mL): 4 µg/mL (≈ 2.73 µM) | MIC Enterococcus faecium (GC 2243) ([1]; inoculum 5×10^5 CFU/mL): 8 µg/mL (≈ 5.46 µM) | MIC Enterococcus faecalis (GC 2691) ([1]; inoculum 5×10^5 CFU/mL): 8 µg/mL (≈ 5.46 µM) | MIC Enterococcus faecalis (GC 3059) ([1]; inoculum 5×10^5 CFU/mL): 8 µg/mL (≈ 5.46 µM) | MIC Enterococcus faecalis (GC 4552) ([1]; inoculum 5×10^5 CFU/mL): 8 µg/mL (≈ 5.46 µM) | MIC Enterococcus faecalis (GC 4553) ([1]; inoculum 5×10^5 CFU/mL): 8 µg/mL (≈ 5.46 µM) | MIC Enterococcus faecalis (GC 4554) ([1]; inoculum 5×10^5 CFU/mL): 16 µg/mL (≈ 10.9 µM) | MIC Enterococcus faecium (GC 4556) ([1]; inoculum 5×10^5 CFU/mL): 8 µg/mL (≈ 5.46 µM) | MIC Enterococcus faecium (GC 4557) ([1]; inoculum 5×10^5 CFU/mL): 4 µg/mL (≈ 2.73 µM) | MIC Enterococcus avium (GC 4558) ([1]; inoculum 5×10^5 CFU/mL): 8 µg/mL (≈ 5.46 µM) | MIC Enterococcus faecalis (GC 6189) ([1]; inoculum 5×10^5 CFU/mL): 4 µg/mL (≈ 2.73 µM) | MIC Enterococcus faecalis (ATCC 29212) [1]: 8 µg/mL (≈ 5.46 µM) | MIC Enterococcus faecalis (GC 2242) [1]: 4 µg/mL (≈ 2.73 µM) | MIC Enterococcus faecium (GC 2243) [1]: 8 µg/mL (≈ 5.46 µM) | MIC Enterococcus faecalis (GC 2691) [1]: 8 µg/mL (≈ 5.46 µM) | MIC Enterococcus faecalis (GC 3059) [1]: 8 µg/mL (≈ 5.46 µM) | MIC Enterococcus faecalis (GC 4552) [1]: 8 µg/mL (≈ 5.46 µM) | MIC Enterococcus faecalis (GC 4553) [1]: 8 µg/mL (≈ 5.46 µM) | MIC Enterococcus faecalis (GC 4554) [1]: 16 µg/mL (≈ 10.9 µM) | MIC Enterococcus faecium (GC 4556) [1]: 8 µg/mL (≈ 5.46 µM) | MIC Enterococcus faecium (GC 4557) [1]: 4 µg/mL (≈ 2.73 µM) | MIC Enterococcus avium (GC 4558) [1]: 8 µg/mL (≈ 5.46 µM) | MIC Enterococcus faecalis (GC 6189) [1]: 4 µg/mL (≈ 2.73 µM) | MIC Escherichia coli (ATCC 25922) ([2]; strain ATCC 25922, 18 hours at 35° C.): >64 µg/mL | MIC Escherichia coli (GC 4559) ([2]; strain GC 4559, 18 hours at 35° C.): 64 µg/mL (≈ 43.7 µM) | MIC Escherichia coli (GC 4560) ([2]; strain GC 4560, 18 hours at 35° C.): 4 µg/mL (≈ 2.73 µM) | MIC Staphylococcus aureus (GC 1131) ([3]; inoculum 5×10^5 CFU/mL): 4 µg/mL (≈ 2.73 µM) | MIC Staphylococcus aureus (ATCC 29213) ([3]; strain ATCC 29213): 8 µg/mL (≈ 5.46 µM) | MIC Staphylococcus aureus (GC 1131) [3]: 4 µg/mL (≈ 2.73 µM) | MIC Staphylococcus aureus (GC 3051) ([3]; strain GC 3051): 16 µg/mL (≈ 10.9 µM) | MIC Staphylococcus aureus (GC 3053) ([3]; strain GC 3053): 8 µg/mL (≈ 5.46 µM) | MIC Staphylococcus aureus (GC 4541) ([3]; strain GC 4541): 8 µg/mL (≈ 5.46 µM) | MIC Staphylococcus aureus (GC 4542) ([3]; strain GC 4542): 16 µg/mL (≈ 10.9 µM) | MIC Staphylococcus aureus-SMITH (GC 4543) ([3]; strain GC 4543): 4 µg/mL (≈ 2.73 µM) | MIC Staphylococcus aureus (GC 4544) ([3]; strain GC 4544): 8 µg/mL (≈ 5.46 µM) | MIC Staphylococcus aureus (GC 4545) ([3]; strain GC 4545): 4 µg/mL (≈ 2.73 µM) | MIC Staphylococcus haemolyticus (GC 4546) ([3]; strain GC 4546): 4 µg/mL (≈ 2.73 µM) | MIC Coagulase Negative Staphylococcus (GC 4547) ([3]; strain GC 4547): 4 µg/mL (≈ 2.73 µM) | MIC Coagulase Negative Staphylococcus (GC 4548) ([3]; strain GC 4548): 1 µg/mL (≈ 0.682 µM) | MIC Coagulase Negative Staphylococcus (GC 4549) ([3]; strain GC 4549): 0.5 µg/mL (≈ 0.341 µM) | MIC Coagulase Negative Staphylococcus (GC 4551) ([3]; strain GC 4551): 4 µg/mL (≈ 2.73 µM) | MIC Coagulase Negative Staphylococcus (GC 6257) ([3]; strain GC 6257): 1 µg/mL (≈ 0.682 µM) | MIC Staphylococcus aureus-SMITH (GC 4543) ([3]; strain SMITH GC 4543): 4 µg/mL (≈ 2.73 µM) | MIC Streptococcus pneumoniae (ATCC 6301) ([4]; inoculum 5×10^5 CFU/mL): <0.06 µg/mL | MIC Streptococcus pneumoniae (GC 1894) ([4]; inoculum 5×10^5 CFU/mL): <0.06 µg/mL | MIC Streptococcus pyogenes (GC 4563) ([4]; inoculum 5×10^5 CFU/mL): 0.12 µg/mL (≈ 0.0819 µM) | MIC Streptococcus agalactiae (GC 4564) ([4]; inoculum 5×10^5 CFU/mL): 0.12 µg/mL (≈ 0.0819 µM) | MIC Streptococcus pneumoniae (GC 4565) ([4]; inoculum 5×10^5 CFU/mL): <0.06 µg/mL | MIC Streptococcus pneumoniae (ATCC 6301) [4]: <0.06 µg/mL | MIC Streptococcus pneumoniae (GC 1894) [4]: <0.06 µg/mL | MIC Streptococcus pyogenes (GC 4563) [4]: 0.12 µg/mL (≈ 0.0819 µM) | MIC Streptococcus agalactiae (GC 4564) [4]: 0.12 µg/mL (≈ 0.0819 µM) | MIC Streptococcus pneumoniae (GC 4565) [4]: <0.06 µg/mL

From US6914045B2, “Glycopeptide antibiotics” (Wyeth Holdings Corporation, priority 2001, dated 2005)
